{"source": "patent US7799924B2", "about": "“Substituted homopiperidine, piperidine or pyrrolidine derivatives” (High Point Pharmaceuticals, LLC, priority 2002, dated 2010)"}
{"smiles": "CN1CCC(c2noc(-c3ccc(-c4ccccc4)cc3)n2)CC1.CS(=O)(=O)O", "values": [{"measurement": "melting point", "value": "222 to 224", "unit": "°C"}]}
